Structures are written as SMILES.
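Note: ALL cell lines in 384-well plates, five doses spanning 10,000-fold, each plate scaled between vehicle and 100 µmol/L benzalkonium chloride controls, sDSS an adapted area-under-curve metric.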

The subject of one test is MHH-CALL-2. In words: selective drug sensitivity score (sDSS, relative to normal bone marrow) (sDSS (score)); higher = more potent and effective on the cell line relative to normal bone marrow cells. Conditions: 72 h.
With `CCCCCOC(=O)Nc1nc(=O)n([C@@H]2O[C@H](C)[C@@H](O)[C@H]2O)cc1F` [Capecitabine] (top concentration 10000 nM), the “selective drug sensitivity score” value is 1.04.

In the case of `Nc1nc(Cl)nc2c1ncn2[C@H]1C[C@H](O)[C@@H](CO)O1` [Cladribine] (top concentration 1000 nM), the “selective drug sensitivity score” value worked out at 4.66.

For the compound `CCN(CC)CCOc1ccc(/C(=C(/Cl)c2ccccc2)c2ccccc2)cc1` [Clomifene] (top concentration 10000 nM), the “selective drug sensitivity score” value was found to be 4.12.

Take `CO[C@@H](C(=O)N1Cc2[nH]nc(NC(=O)c3ccc(N4CCN(C)CC4)cc3)c2C1)c1ccccc1` [Danusertib] (top concentration 10000 nM): the “selective drug sensitivity score” value stood at 11.7.

For `CC[C@@](C)(Nc1ccnc(-c2c[nH]c3ncccc23)n1)C(=O)NCC(F)(F)F` [Decernotinib] (top concentration 10000 nM), the “selective drug sensitivity score” value was -3.94.

Take `CN1CCN(c2ccc3nc(-c4c(N)c5c(F)cccc5[nH]c4=O)[nH]c3c2)CC1` [Dovitinib] (top concentration 10000 nM): the “selective drug sensitivity score” value was -0.14.

`CC(C)(O)CNc1nc(Nc2ccnc(C(F)(F)F)c2)nc(-c2cccc(C(F)(F)F)n2)n1` [Enasidenib] (top concentration 10000 nM): the “selective drug sensitivity score” value is -0.4.

On to `CN1CCN(c2ccc(C(=O)Nc3n[nH]c4ccc(Cc5cc(F)cc(F)c5)cc34)c(NC3CCOCC3)c2)CC1` [Entrectinib] (top concentration 1000 nM), for which the “selective drug sensitivity score” value was -0.8.

With `CNC(=O)c1ccc(N2C(=S)N(c3ccc(C#N)c(C(F)(F)F)c3)C(=O)C2(C)C)cc1F` [Enzalutamide] (top concentration 10000 nM), the “selective drug sensitivity score” value is -0.12.

For `Cn1cc(C2=C(c3cn(C4CCN(Cc5ccccn5)CC4)c4ccccc34)C(=O)NC2=O)c2ccccc21` [Enzastaurin] (top concentration 10000 nM), the “selective drug sensitivity score” value is 0.66.

For the compound `NS(=O)(=O)NCCNc1nonc1/C(=N/O)Nc1ccc(F)c(Br)c1` [Epacadostat] (top concentration 10000 nM), the “selective drug sensitivity score” value stood at 1.64.

As to `CCOc1ccccc1-n1c(C(C)N2CCN(C(=O)COc3ccc(Cl)cc3)CC2)nc2ccccc2c1=O` (stereo not given) [Erastin] (top concentration 10000 nM), the “selective drug sensitivity score” value amounted to 6.34.

As to `COc1cc(OC)cc(N(CCNC(C)C)c2ccc3ncc(-c4cnn(C)c4)nc3c2)c1` [Erdafitinib] (top concentration 1000 nM), the “selective drug sensitivity score” value amounted to 8.24.

As to `CC(C)(C)NC(=O)[C@H]1CC[C@H]2[C@@H]3CC[C@H]4NC(=O)C=C[C@]4(C)[C@H]3CC[C@]12C` [Finasteride] (top concentration 10000 nM), the “selective drug sensitivity score” value stood at 0.98.

For the compound `O=c1[nH]c(=O)n([C@H]2C[C@H](O)[C@@H](CO)O2)cc1F` [Floxuridine] (top concentration 10000 nM), the “selective drug sensitivity score” value came out at 24.2.

For `CNc1nc(Nc2cn(C(C)(C)C#N)nc2C)ncc1C(F)(F)F` [GNE-0877] (top concentration 1000 nM), the “selective drug sensitivity score” value came out at 0.

Regarding `CCCc1cc(C)[nH]c(=O)c1CNC(=O)c1cc(-c2ccnc(N3CCN(C)CC3)c2)cc2c1cnn2C(C)C` [GSK343] (top concentration 1000 nM), the “selective drug sensitivity score” value was determined as 0.

Turning to `O=C(O)c1ccc(O)c2ncccc12` [IOX-1] (top concentration 100000 nM), the “selective drug sensitivity score” value came out at 3.64.

Another test has as its system HAL-01. The description is as above. Conditions: 72 h.
On to `CCCCCOC(=O)Nc1nc(=O)n([C@@H]2O[C@H](C)[C@@H](O)[C@H]2O)cc1F` [Capecitabine] (top concentration 10000 nM), for which the “selective drug sensitivity score” value came to 0.44.

Consider `Nc1nc(Cl)nc2c1ncn2[C@H]1C[C@H](O)[C@@H](CO)O1` [Cladribine] (top concentration 1000 nM), for which the “selective drug sensitivity score” value was -0.14.

As for `CCN(CC)CCOc1ccc(/C(=C(/Cl)c2ccccc2)c2ccccc2)cc1` [Clomifene] (top concentration 10000 nM), the “selective drug sensitivity score” value was 4.32.

For `CO[C@@H](C(=O)N1Cc2[nH]nc(NC(=O)c3ccc(N4CCN(C)CC4)cc3)c2C1)c1ccccc1` [Danusertib] (top concentration 10000 nM), the “selective drug sensitivity score” value was -2.56.

Consider `CC[C@@](C)(Nc1ccnc(-c2c[nH]c3ncccc23)n1)C(=O)NCC(F)(F)F` [Decernotinib] (top concentration 10000 nM), for which the “selective drug sensitivity score” value is -3.94.

Take `CN1CCN(c2ccc3nc(-c4c(N)c5c(F)cccc5[nH]c4=O)[nH]c3c2)CC1` [Dovitinib] (top concentration 10000 nM): the “selective drug sensitivity score” value was -0.14.

As for `CC(C)(O)CNc1nc(Nc2ccnc(C(F)(F)F)c2)nc(-c2cccc(C(F)(F)F)n2)n1` [Enasidenib] (top concentration 10000 nM), the “selective drug sensitivity score” value was -0.8.

For `CN1CCN(c2ccc(C(=O)Nc3n[nH]c4ccc(Cc5cc(F)cc(F)c5)cc34)c(NC3CCOCC3)c2)CC1` [Entrectinib] (top concentration 1000 nM), the “selective drug sensitivity score” value came to 0.

Consider `CNC(=O)c1ccc(N2C(=S)N(c3ccc(C#N)c(C(F)(F)F)c3)C(=O)C2(C)C)cc1F` [Enzalutamide] (top concentration 10000 nM), for which the “selective drug sensitivity score” value was -0.82.

`Cn1cc(C2=C(c3cn(C4CCN(Cc5ccccn5)CC4)c4ccccc34)C(=O)NC2=O)c2ccccc21` [Enzastaurin] (top concentration 10000 nM): the “selective drug sensitivity score” value is -0.34.

As to `NS(=O)(=O)NCCNc1nonc1/C(=N/O)Nc1ccc(F)c(Br)c1` [Epacadostat] (top concentration 10000 nM), the “selective drug sensitivity score” value stood at 0.84.

In the case of `CCOc1ccccc1-n1c(C(C)N2CCN(C(=O)COc3ccc(Cl)cc3)CC2)nc2ccccc2c1=O` (stereo not given) [Erastin] (top concentration 10000 nM), the “selective drug sensitivity score” value amounted to 18.5.

As for `COc1cc(OC)cc(N(CCNC(C)C)c2ccc3ncc(-c4cnn(C)c4)nc3c2)c1` [Erdafitinib] (top concentration 1000 nM), the “selective drug sensitivity score” value amounted to 6.94.

For the compound `CC(C)(C)NC(=O)[C@H]1CC[C@H]2[C@@H]3CC[C@H]4NC(=O)C=C[C@]4(C)[C@H]3CC[C@]12C` [Finasteride] (top concentration 10000 nM), the “selective drug sensitivity score” value was found to be 1.08.

For the compound `O=c1[nH]c(=O)n([C@H]2C[C@H](O)[C@@H](CO)O2)cc1F` [Floxuridine] (top concentration 10000 nM), the “selective drug sensitivity score” value was 23.7.

On to `CNc1nc(Nc2cn(C(C)(C)C#N)nc2C)ncc1C(F)(F)F` [GNE-0877] (top concentration 1000 nM), for which the “selective drug sensitivity score” value is 0.

For `CCCc1cc(C)[nH]c(=O)c1CNC(=O)c1cc(-c2ccnc(N3CCN(C)CC3)c2)cc2c1cnn2C(C)C` [GSK343] (top concentration 1000 nM), the “selective drug sensitivity score” value came out at 0.

For `O=C(O)c1ccc(O)c2ncccc12` [IOX-1] (top concentration 100000 nM), the “selective drug sensitivity score” value was 3.34.

In the next test the test system is KASUMI-9. The description is as above. Particulars: 72 h.
For the compound `CCCCCOC(=O)Nc1nc(=O)n([C@@H]2O[C@H](C)[C@@H](O)[C@H]2O)cc1F` [Capecitabine] (top concentration 10000 nM), the “selective drug sensitivity score” value is -0.06.

As to `Nc1nc(Cl)nc2c1ncn2[C@H]1C[C@H](O)[C@@H](CO)O1` [Cladribine] (top concentration 1000 nM), the “selective drug sensitivity score” value turned out to be 7.76.

`CCN(CC)CCOc1ccc(/C(=C(/Cl)c2ccccc2)c2ccccc2)cc1` [Clomifene] (top concentration 10000 nM): the “selective drug sensitivity score” value amounted to 1.72.

Regarding `CO[C@@H](C(=O)N1Cc2[nH]nc(NC(=O)c3ccc(N4CCN(C)CC4)cc3)c2C1)c1ccccc1` [Danusertib] (top concentration 10000 nM), the “selective drug sensitivity score” value was 15.5.

In the case of `CC[C@@](C)(Nc1ccnc(-c2c[nH]c3ncccc23)n1)C(=O)NCC(F)(F)F` [Decernotinib] (top concentration 10000 nM), the “selective drug sensitivity score” value was -3.74.

As for `CN1CCN(c2ccc3nc(-c4c(N)c5c(F)cccc5[nH]c4=O)[nH]c3c2)CC1` [Dovitinib] (top concentration 10000 nM), the “selective drug sensitivity score” value came out at 0.56.

As to `CC(C)(O)CNc1nc(Nc2ccnc(C(F)(F)F)c2)nc(-c2cccc(C(F)(F)F)n2)n1` [Enasidenib] (top concentration 10000 nM), the “selective drug sensitivity score” value was -0.8.

As to `CN1CCN(c2ccc(C(=O)Nc3n[nH]c4ccc(Cc5cc(F)cc(F)c5)cc34)c(NC3CCOCC3)c2)CC1` [Entrectinib] (top concentration 1000 nM), the “selective drug sensitivity score” value was -1.1.

As for `CNC(=O)c1ccc(N2C(=S)N(c3ccc(C#N)c(C(F)(F)F)c3)C(=O)C2(C)C)cc1F` [Enzalutamide] (top concentration 10000 nM), the “selective drug sensitivity score” value was -0.82.
